Experimental findings from the supplement of paper PMC10307832 are described below.

Test in all cases: relative viability (nuclei count vs DMSO), 5 days (fraction); higher = more cells survive
Compound in assay [1]: C[C@@]1(C(=O)Nc2ccc(F)nc2)CCCN1c1nc(Nc2cc(C3CC3)n[nH]2)c2cccn2n1 + C[C@@H](Oc1cc(-c2cnn(C3CCNCC3)c2)cnc1N)c1c(Cl)ccc(F)c1Cl [Crizotinib] (partner 1 µM)
In outline:
(§1)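 Lung cancer cell lines, seeded in 1536-well plates, were treated the following day by pin tool with a single drug or with five library-drug doses (not always all listed) in √10 steps on top of a fixed anchor-drug dose. Cells were fixed and nuclei stained in one step after 5 days, and nuclei were counted. Relative viability is the nuclei count for treated wells divided by that for vehicle wells, reported as medians of duplicate plates.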

Compound in assay [2]: C[C@@]1(C(=O)Nc2ccc(F)nc2)CCCN1c1nc(Nc2cc(C3CC3)n[nH]2)c2cccn2n1 + C[C@]1(O)C[C@@H](c2nc(-c3ccc4ccc(-c5ccccc5)nc4c3)c3c(N)nccn32)C1 [Linsitinib] (partner 1 µM)
The gist of the method:
as §1

Compound in the assay “Motesanib + Foretinib”: CC1(C)CNc2cc(NC(=O)c3cccnc3NCc3ccncc3)ccc21 [Motesanib] + COc1cc2c(Oc3ccc(NC(=O)C4(C(=O)Nc5ccc(F)cc5)CC4)cc3F)ccnc2cc1OCCCN1CCOCC1 [Foretinib] (partner 0.25 µM)
In outline:
as §1

Compound in assay [3]: C[C@@]1(C(=O)Nc2ccc(F)nc2)CCCN1c1nc(Nc2cc(C3CC3)n[nH]2)c2cccn2n1 + CS(=O)(=O)N1CCN(Cc2cc3nc(-c4cccc5[nH]ncc45)nc(N4CCOCC4)c3s2)CC1 [Pictilisib] (partner 1 µM)
The gist of the method: as §1

As for UMC-11, the relative viability in assay [1] (first compound 0.04 µM) came to 0.615; in assay [1] (first compound 0.1265 µM), 0.628; in assay [1] (first compound 0.4 µM) it was 0.534; in assay [1] (first compound 1.265 µM) it was 0.328; in assay [2] (first compound 0.04 µM), 1.08; in assay [2] (first compound 0.1265 µM), 0.985. For the same cell line, the relative viability in assay [2] (first compound 0.4 µM) was found to be 0.957; in assay [2] (first compound 1.265 µM), 1.05; with Motesanib + Foretinib (first compound 0.01 µM), 0.998; with Motesanib + Foretinib (first compound 0.03162 µM), 1.08; in the assay with Motesanib + Foretinib (first compound 0.1 µM), 0.985; in the assay with Motesanib + Foretinib (first compound 0.3162 µM), 1.08. The relative viability turned out to be 1.2 with Motesanib + Foretinib (first compound 1 µM); 0.776 in assay [3] (first compound 0.04 µM); 0.868 in assay [3] (first compound 0.1265 µM); 0.805 in assay [3] (first compound 0.4 µM); 0.723 in assay [3] (first compound 1.265 µM).
